Molecular target: T1, 20S proteasome, chymotrypsin-like activity (β5 subunit) (Oryctolagus cuniculus, UniProt G1T4Q9)
T1 sequence (G1T4Q9 1-263): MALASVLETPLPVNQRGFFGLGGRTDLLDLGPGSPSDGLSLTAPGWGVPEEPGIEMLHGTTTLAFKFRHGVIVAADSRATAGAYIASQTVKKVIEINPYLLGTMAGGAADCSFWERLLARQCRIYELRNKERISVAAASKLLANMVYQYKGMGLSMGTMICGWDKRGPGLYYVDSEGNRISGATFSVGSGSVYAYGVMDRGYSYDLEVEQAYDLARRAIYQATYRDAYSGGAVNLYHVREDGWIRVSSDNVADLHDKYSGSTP
Assay: fluorogenic Suc-LLVY-AMC hydrolysis by purified […] proteasome, […] h
Type: biochemical

Structure (SMILES) | IC50
COc1cccc2c1[O][Cu-3]13([O]C(=O)C(CCSC)[N+]1=C2)[n+]1cccc2ccc4ccc[n+]3c4c21 (stereo not shown) [C1, [Cu(L1)(Phen)]·9H2O] | 13.3 µM
COc1cccc2c1[O][Cu-3]13([O]C(=O)[C@H](CCSC)[N+]1=C2)[n+]1ccccc1-c1cccc[n+]13 [C2, [Cu(L1)(Bpy)]·3H2O] | 46.5 µM
CC(C)[C@H]1C(=O)[O][Cu-3]23([O]c4ccc5ccccc5c4C=[N+]12)[n+]1cccc2ccc4ccc[n+]3c4c21 [C3, [Cu(L2)(Phen)]·3H2O] | 11.3 µM
CC(C)[C@H]1C(=O)[O][Cu-3]23([O]c4ccc5ccccc5c4C=[N+]12)[n+]1ccccc1-c1cccc[n+]13 [C4, [Cu(L2)(Bpy)]·3H2O] | 42.5 µM

From article PMC3676669 (Journal of inorganic biochemistry, 2012)
